From patent US12630600B2 (MEDIMMUNE LIMITED, priority 2022, dated 2026)
Starred links: 1 amine or outer side, 2 acyl side, 3 side chain; linkers in the order of their positions; H or OH if unused. Non-standard residues stand in square brackets, D forms with d. Residues, ends and D or L forms follow the SMILES beside them. Groups on a side chain read outwards from the residue. *: point of attachment. C18 diacid = O=C(O)CCCCCCCCCCCCCCCCC(=O)*; Dip = N[C@H](C(=O)O)C(c1ccccc1)c1ccccc1; γGlu = O=C(O)[C@H](CCC(=O)[*:2])N[*:1]; Stearoyl = CCCCCCCCCCCCCCCCCC(=O)*; Palmitoyl = CCCCCCCCCCCCCCCC(=O)*; αMeF = C[C@](N)(Cc1ccccc1)C(=O)O; PEG4 = NCCOCCOCCOCCOCCC(=O)O; PEG2 = NCCOCCOCCC(=O)O; AEEA = NCCOCCOCC(=O)O; Aib = CC(C)(N)C(=O)O

Tests used:
wildtype (WT) mice = assay: Glucose change in wildtype mice; format: in vivo, mouse; details: s.c.
Protocol: […] and wildtype (WT) mice at 8-14 weeks of age were singly housed on standard chow diet (Envigo, 2918) and automatic water. They acclimated for a minimum of ˜1-2 weeks, and mice were sorted into groups (n=4-8/group) based on body weight. On day of study, mice were fasted briefly for 2 hrs prior to study start. In some studies, mice were pre-treated with octreotide (BaChem, 10 mg/kg) at 30 minutes prior to peptide injection. Glucose was measured via glucometer at various timepoints including −30 min (prior to octreotide when used in studies), 0 min (before peptide dose), 30, 60, 120, 180, 240, and 360 minutes. Since these studies are acute in nature, mice were re-used for multiple studies (no more than 3) and always allowed at least a minimum wash-out period of 1 week.

[1] = molecular target: T1, human GLP-1 receptor (hGLP-1R) (Homo sapiens, UniProt P43220); assay: cAMP production (HTRF) in CHO cells expressing human GLP-1 receptor; format: cell-based; details: Table 8; % GLP-1R activity relative to GLP-1 / % GlucR activity relative to glucagon
T1 construct: expressed in transfected cells; host or cells: CHO

[2] = 10 nmol/kg, somatostatin pretreatment 30 min prior to cpd

T1 sequence (P43220 24-463): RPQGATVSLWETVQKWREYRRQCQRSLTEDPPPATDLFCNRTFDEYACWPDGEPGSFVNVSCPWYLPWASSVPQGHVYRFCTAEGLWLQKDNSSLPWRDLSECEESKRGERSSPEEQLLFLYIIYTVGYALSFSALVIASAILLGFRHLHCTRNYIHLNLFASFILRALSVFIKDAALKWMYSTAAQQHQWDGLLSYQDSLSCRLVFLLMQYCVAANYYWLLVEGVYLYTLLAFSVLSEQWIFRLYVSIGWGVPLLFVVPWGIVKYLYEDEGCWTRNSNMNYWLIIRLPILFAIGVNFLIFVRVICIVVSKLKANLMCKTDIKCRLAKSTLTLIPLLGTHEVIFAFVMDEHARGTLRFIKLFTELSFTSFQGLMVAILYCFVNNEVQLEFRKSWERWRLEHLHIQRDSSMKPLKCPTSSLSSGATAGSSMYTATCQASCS

| SMILES | WT % glucose change 120 min (wildtype (WT) mice; [2]) [%] | further results |
| --- | --- | --- |
| CCCCCCCCCCCCCCCC(=O)N[C@@H](CCC(=O)N[C@@H](CCC(=O)NCCOCCOCCOCCOCCC(=O)NCCCC[C@H](NC(=O)[C@H](CO)NC(=O)[C@H](CC(=O)O)NC(=O)[C@H](CC(C)C)NC(=O)[C@@H](NC(=O)[C@H](CCCCN)NC(=O)[C@H](CO)NC(=O)[C@@H](NC(=O)[C@H](CC(=O)O)NC(=O)[C@H](CO)NC(=O)[C@@H](NC(=O)[C@](C)(Cc1ccccc1)NC(=O)[C@H](CO)NC(=O)CNC(=O)[C@H](CCC(N)=O)NC(=O)C(C)(C)NC(=O)[C@@H](N)Cc1c[nH]cn1)[C@@H](C)O)C(C)C)C(c1ccccc1)c1ccccc1)C(=O)N[C@@H](CCCNC(=N)N)C(=O)N[C@@H](C)C(=O)N[C@@H](CCC(N)=O)C(=O)N[C@@H](CC(=O)O)C(=O)N[C@@](C)(Cc1ccccc1)C(=O)N[C@H](C(=O)N[C@@H](CCC(=O)O)C(=O)NC(C)(C)C(=O)N[C@@H](CC(C)C)C(=O)N[C@@H](CCC(=O)O)C(=O)N[C@@H](C)C(=O)NCC(=O)NCC(N)=O)C(C)C)C(=O)O)C(=O)O [Peptide 43] (H-H[Aib]QGS[αMeF]TSDVSK[Dip]LDSK([PEG4-γGlu-γGlu-Palmitoyl])RAQD[αMeF]VE[Aib]LEAGG-NH2; N-terminus assumed) | – | WT % glucose change 120 min (wildtype (WT) mice; 3 nmol/kg, no somatostatin pretreatment): −56.0% |
| CC[C@H](C)[C@H](NC(=O)C(C)(C)NC(=O)[C@H](CCC(N)=O)NC(=O)[C@@H](NC(=O)[C@](C)(Cc1ccccc1)NC(=O)[C@H](CC(=O)O)NC(=O)[C@H](CCCCNC(=O)COCCOCCNC(=O)COCCOCCNC(=O)CC[C@H](NC(=O)CCCCCCCCCCCCCCCCC(=O)O)C(=O)O)NC(=O)[C@H](C)NC(=O)[C@H](C)NC(=O)[C@H](CCCNC(=N)N)NC(=O)[C@H](CO)NC(=O)[C@H](CC(=O)O)NC(=O)[C@H](CC(C)C)NC(=O)[C@](C)(Cc1ccccc1)NC(=O)[C@H](CCCCN)NC(=O)[C@H](CO)NC(=O)[C@@H](NC(=O)[C@H](CC(=O)O)NC(=O)[C@H](CO)NC(=O)[C@@H](NC(=O)[C@](C)(Cc1ccccc1)NC(=O)[C@H](CO)NC(=O)CNC(=O)[C@H](Cc1c[nH]cn1)NC(=O)C(C)(C)NC(=O)[C@@H](N)Cc1c[nH]cn1)[C@@H](C)O)C(C)C)C(C)C)C(=O)N[C@@H](C)C(=O)N[C@@H](CC(N)=O)C(=O)N[C@H](C(N)=O)[C@@H](C)O [Peptide 224, H-Aib-H-G-S-αMePhe-T-S-D-V-S-K-αMePhe-L-D-S-R-A-A-K(ε-(O2Oc)-(O2Oc)-γE-C18diacid)20-D-αMePhe-V-Q-Aib-I-A-N-T-amide] (H-H[Aib]HGS[αMeF]TSDVSK[αMeF]LDSRAAK([AEEA-AEEA-γGlu-C18 diacid])D[αMeF]VQ[Aib]IANT-NH2) | −40.0 | – |
| CC[C@H](C)[C@H](NC(=O)[C@H](Cc1c[nH]c2ccccc12)NC(=O)[C@H](CCCCNC(=O)COCCOCCNC(=O)COCCOCCNC(=O)CC[C@H](NC(=O)CCCCCCCCCCCCCCCCC(=O)O)C(=O)O)NC(=O)[C@@H](NC(=O)[C@H](Cc1ccccc1)NC(=O)[C@H](CC(=O)O)NC(=O)[C@H](CCC(N)=O)NC(=O)[C@H](C)NC(=O)[C@H](C)NC(=O)[C@H](CCCNC(=N)N)NC(=O)[C@H](CO)NC(=O)[C@H](CC(=O)O)NC(=O)[C@H](CC(C)C)NC(=O)[C@](C)(Cc1ccccc1)NC(=O)[C@H](CCCCN)NC(=O)[C@H](CO)NC(=O)[C@@H](NC(=O)[C@H](CC(=O)O)NC(=O)[C@H](CO)NC(=O)[C@@H](NC(=O)[C@](C)(Cc1ccccc1)NC(=O)[C@H](CO)NC(=O)CNC(=O)[C@H](Cc1c[nH]cn1)NC(=O)C(C)(C)NC(=O)[C@@H](N)Cc1c[nH]cn1)[C@@H](C)O)C(C)C)C(C)C)C(=O)N[C@@H](C)C(=O)N[C@@H](CC(N)=O)C(=O)N[C@H](C(N)=O)[C@@H](C)O [Peptide 361] (H-H[Aib]HGS[αMeF]TSDVSK[αMeF]LDSRAAQDFVK([AEEA-AEEA-γGlu-C18 diacid])WIANT-NH2) | −23.0 | % Relative Potency Ratio [1]: 1.3 |
| CCCCCCCCCCCCCCCCCC(=O)N[C@@H](CCC(=O)N[C@@H](CCC(=O)NCCOCCOCCC(=O)NCCOCCOCCC(=O)NCCCC[C@H](NC(=O)[C@H](CO)NC(=O)[C@H](CC(=O)O)NC(=O)[C@H](CC(C)C)NC(=O)[C@@H](NC(=O)[C@H](CCCCN)NC(=O)[C@H](CO)NC(=O)[C@@H](NC(=O)[C@H](CC(=O)O)NC(=O)[C@H](CO)NC(=O)[C@@H](NC(=O)[C@](C)(Cc1ccccc1)NC(=O)[C@H](CO)NC(=O)CNC(=O)[C@H](CCC(N)=O)NC(=O)[C@H](CO)NC(=O)[C@@H](N)Cc1c[nH]cn1)[C@@H](C)O)C(C)C)C(c1ccccc1)c1ccccc1)C(=O)N[C@@H](C)C(=O)N[C@@H](C)C(=O)N[C@@H](CCC(N)=O)C(=O)N[C@@H](CC(=O)O)C(=O)N[C@@](C)(Cc1ccccc1)C(=O)N[C@H](C(=O)N[C@@H](CCC(=O)O)C(=O)NC(C)(C)C(=O)N[C@H](C(=O)N[C@@H](C)C(=O)N[C@@H](CC(N)=O)C(=O)N[C@H](C(N)=O)[C@@H](C)O)[C@@H](C)CC)C(C)C)C(=O)O)C(=O)O [Peptide 49] (H-HSQGS[αMeF]TSDVSK[Dip]LDSK([PEG2-PEG2-γGlu-γGlu-Stearoyl])AAQD[αMeF]VE[Aib]IANT-NH2; N-terminus assumed) | −1.2 | – |
| CC(C)C[C@H](NC(=O)[C@H](Cc1c[nH]c2ccccc12)NC(=O)[C@H](CCCNC(=N)N)NC(=O)[C@@H](NC(=O)[C@H](Cc1ccccc1)NC(=O)[C@H](CC(=O)O)NC(=O)[C@H](CCC(N)=O)NC(=O)[C@H](C)NC(=O)[C@H](CCCNC(=N)N)NC(=O)[C@H](CCCCNC(=O)COCCOCCNC(=O)COCCOCCNC(=O)CC[C@H](NC(=O)CCCCCCCCCCCCCCCCC(=O)O)C(=O)O)NC(=O)[C@@H](NC(=O)[C@H](CC(=O)O)NC(=O)[C@H](CC(C)C)NC(=O)[C@](C)(Cc1ccccc1)NC(=O)[C@H](CCCCN)NC(=O)[C@H](CO)NC(=O)[C@@H](NC(=O)[C@H](CC(=O)O)NC(=O)[C@H](CO)NC(=O)[C@@H](NC(=O)[C@H](Cc1ccccc1)NC(=O)[C@@H](NC(=O)CNC(=O)[C@H](CCC(N)=O)NC(=O)C(C)(C)NC(=O)[C@@H](N)Cc1c[nH]cn1)[C@@H](C)O)[C@@H](C)O)C(C)C)[C@@H](C)O)C(C)C)C(=O)N[C@@H](CC(C)C)C(=O)N[C@@H](CCC(=O)O)C(=O)NC(C)(C)C(=O)NCC(=O)O [Peptide 140] (H-H[Aib]QGTFTSDVSK[αMeF]LDTK([AEEA-AEEA-γGlu-C18 diacid])RAQDFVRWLLE[Aib]G-OH; N-terminus assumed) | – | WT % glucose change 60 min (wildtype (WT) mice; 30 nmol/kg, no somatostatin pretreatment): −29.0% |
